Laboratory results published in PubChem BioAssay AID256 (DTP/NCI, 2004).
Values joined by “and” are separate entries in the source; they are usually repeats but may differ in a detail not shown here. Equal entries are not always repeated. Toxic doses and inconclusive results are not listed. How the source made its calls: active means survival T/C of 150% or more; inactive means T/C below 125% in these data.

Tested on: CD2F1 mice, L1210 leukemia ip, survival T/C
Assay: NCI In Vivo Anticancer Drug Screen. Data for tumor model L1210 Leukemia (intraperitoneal) in CD2F1 (CDF1) mice
Conditions: endpoint: mean survival time, higher = longer survival
How it was run: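 Implant tumor; dose compound or vehicle; measure endpoint in both groups; report treated divided by control.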

[1] = dose: 100.0 mg/kg/injection, schedule: Q01DX001 (ip), vehicle: other
[2] = dose: 200.0 mg/kg/injection, schedule: Q01DX001 (ip), vehicle: other
[3] = dose: 400.0 mg/kg/injection, schedule: Q01DX001 (ip), vehicle: other
[4] = dose: 100.0 mg/kg/injection, schedule: Q04DX003 (ip), vehicle: saline with Tween-80
[5] = dose: 200.0 mg/kg/injection, schedule: Q04DX003 (ip), vehicle: saline with Tween-80
[6] = dose: 400.0 mg/kg/injection, schedule: Q04DX003 (ip), vehicle: saline with Tween-80
[7] = dose: 100.0 mg/kg/injection, schedule: Q01DX001 (ip), vehicle: saline with Tween-80
[8] = dose: 200.0 mg/kg/injection, schedule: Q01DX001 (ip), vehicle: saline with Tween-80
[9] = dose: 25.0 mg/kg/injection, schedule: Q04DX003 (ip), vehicle: saline with Tween-80
[10] = dose: 50.0 mg/kg/injection, schedule: Q01DX009 (ip), vehicle: saline with Tween-80
[11] = dose: 50.0 mg/kg/injection, schedule: Q04DX003 (ip), vehicle: saline with Tween-80
[12] = dose: 100.0 mg/kg/injection, schedule: Q01DX009 (ip), vehicle: saline with Tween-80
[13] = dose: 200.0 mg/kg/injection, schedule: Q01DX009 (ip), vehicle: saline with Tween-80
[14] = dose: 400.0 mg/kg/injection, schedule: Q01DX009 (ip), vehicle: saline with Tween-80
[15] = dose: 75.0 mg/kg/injection, schedule: Q01DX001 (ip), vehicle: saline

Measured: T/C

CN(C)c1ccc(C(=C2C=CC(=[N+](C)C)C=C2)c2ccc(N(C)C)cc2)cc1 (tested in a mixture with another compound)
inactive: dose: 0.15 mg/kg/injection, schedule: Q01DX009 (ip), vehicle: saline with Tween-80 110 % of control | dose: 0.31 mg/kg/injection, schedule: Q01DX009 (ip), vehicle: saline with Tween-80 100 % of control | dose: 0.31 mg/kg/injection, schedule: Q01DX009 (ip), vehicle: suspension in saline 97 % of control | dose: 0.62 mg/kg/injection, schedule: Q01DX009 (ip), vehicle: saline with Tween-80 105 % of control | dose: 0.62 mg/kg/injection, schedule: Q01DX009 (ip), vehicle: suspension in saline 106 % of control | dose: 1.25 mg/kg/injection, schedule: Q01DX009 (ip), vehicle: saline with Tween-80 113 % of control | dose: 1.25 mg/kg/injection, schedule: Q01DX009 (ip), vehicle: suspension in saline 101 % of control | dose: 2.5 mg/kg/injection, schedule: Q01DX009 (ip), vehicle: saline with Tween-80 117 % of control | dose: 2.5 mg/kg/injection, schedule: Q01DX009 (ip), vehicle: suspension in saline 106 % of control

CSc1ncc(Br)c(Sc2nc(N)nc3nc[nH]c23)n1
inactive: dose: 2.2 mg/kg/injection, schedule: Q01DX001 (ip), vehicle: saline with Tween-80 123 % of control | dose: 3.0 mg/kg/injection, schedule: Q01DX001 (ip), vehicle: saline with Tween-80 117 % of control | dose: 3.4 mg/kg/injection, schedule: Q01DX001 (ip), vehicle: saline with Tween-80 123 % of control | dose: 4.4 mg/kg/injection, schedule: Q01DX001 (ip), vehicle: saline with Tween-80 122 % of control

NC(=O)c1ncn(CCCCCO)c1N
inactive: [1] 91 % of control | [2] 103 % of control | [3] 101 % of control

CCOC(=O)CC(C)(CC(=O)OCC)C(C#N)C(=O)OCC (configuration not stated)
inactive: [4] 116 % of control | [5] 119 % of control | [6] 120 % of control

O=C(N/N=C/c1ccc(O)cc1)c1ccccc1
inactive: [1] 100 % of control | dose: 100.0 mg/kg/injection, schedule: Q01DX009 (ip), vehicle: Klucel (hydroxypropylcellulose) (HPC) 100 % of control | [2] 94 % of control | dose: 200.0 mg/kg/injection, schedule: Q01DX009 (ip), vehicle: Klucel (hydroxypropylcellulose) (HPC) 96 % of control | [3] 103 % of control | dose: 400.0 mg/kg/injection, schedule: Q01DX009 (ip), vehicle: Klucel (hydroxypropylcellulose) (HPC) 94 % of control

CC(C)(C)C1=CC(=O)C(C(C)(C)C)=C(N=[N+]=[N-])C1=O
inactive: [7] 101 % of control | [8] 97 % of control | dose: 400.0 mg/kg/injection, schedule: Q01DX001 (ip), vehicle: saline with Tween-80 97 % of control

N#CC(c1ccccn1)N1CCOCC1 (configuration not stated)
inactive: dose: 12.5 mg/kg/injection, schedule: Q04DX002 (ip), vehicle: saline with Tween-80 97 % of control and 100 % of control | [9] 104 % of control | dose: 50.0 mg/kg/injection, schedule: Q01DX001 (ip), vehicle: saline with Tween-80 100 % of control | [10] 89 % of control and 103 % of control | [11] 109 % of control | [7] 94 % of control | [12] 89 % of control and 95 % of control | [4] 107 % of control | [8] 100 % of control | dose: 200.0 mg/kg/injection, schedule: Q04DX002 (ip), vehicle: saline with Tween-80 98 % of control

CN1CCC(COC(=O)C(O)(c2ccccc2)c2ccccc2)C1 (configuration not stated)
inactive: dose: 25.0 mg/kg/injection, schedule: Q01DX009 (ip), vehicle: saline with Tween-80 100 % of control | [10] 100 % of control | [12] 94 % of control

c1ccc(C2=NC3CCCCC3N=C2c2ccccc2)cc1 (configuration not stated)
inactive: [12] 109 % of control | [13] 113 % of control | [14] 103 % of control

COc1ccc(-c2cc(C(=O)O)c3cccc(C)c3n2)cc1
inactive: [10] 95 % of control | [12] 95 % of control | [4] 98 % of control | [13] 95 % of control | [5] 95 % of control

COc1cc2c(c3ccccc13)CCCC2=O
inactive: [12] 95 % of control | [13] 92 % of control | [14] 97 % of control

CCc1c(-c2ccccc2)c(CN2CCCCC2)c2ccccn12
inactive: [15] 103 % of control | dose: 150.0 mg/kg/injection, schedule: Q01DX001 (ip), vehicle: saline 103 % of control | dose: 300.0 mg/kg/injection, schedule: Q01DX001 (ip), vehicle: saline 113 % of control

CCCCC(NCCNC(CCCC)C(=O)O)C(=O)O (configuration not stated)
inactive: [4] 102 % of control | [5] 91 % of control | [6] 107 % of control

CC(=O)Oc1c(Br)c(-c2cc([N+](=O)[O-])c(C)c([N+](=O)[O-])c2C)c(OC(C)=O)c(Br)c1-c1cc([N+](=O)[O-])c(C)c([N+](=O)[O-])c1C
inactive: [4] 93 % of control | [5] 93 % of control | [6] 87 % of control

N/C(=N/OCc1ccccc1)c1ncn(C2CCCC2)c1NC=O
inactive: [1] 112 % of control | [2] 104 % of control | [3] 102 % of control

CCOC(=O)/C(C#N)=N/O
inactive: [15] 100 % of control

COc1ccc(C2=NC(C)Cc3cc(OC)c(OC)cc32)cc1OC (configuration not stated)
inactive: dose: 12.5 mg/kg/injection, schedule: Q01DX009 (ip), vehicle: water 96 % of control | dose: 25.0 mg/kg/injection, schedule: Q01DX009 (ip), vehicle: water 94 % of control | dose: 50.0 mg/kg/injection, schedule: Q01DX009 (ip), vehicle: water 94 % of control | dose: 100.0 mg/kg/injection, schedule: Q01DX009 (ip), vehicle: water 91 % of control

[Cl][Pt+2][Cl].[NH-]c1cccc(I)c1.[NH-]c1cccc(I)c1
inactive: dose: 3.12 mg/kg/injection, schedule: Q04DX003 (ip), vehicle: distilled water + Tween-80 103 % of control | dose: 6.25 mg/kg/injection, schedule: Q04DX003 (ip), vehicle: distilled water + Tween-80 110 % of control | dose: 12.5 mg/kg/injection, schedule: Q04DX003 (ip), vehicle: distilled water + Tween-80 108 % of control | dose: 25.0 mg/kg/injection, schedule: Q04DX003 (ip), vehicle: distilled water + Tween-80 106 % of control | dose: 50.0 mg/kg/injection, schedule: Q04DX003 (ip), vehicle: distilled water + Tween-80 112 % of control | dose: 100.0 mg/kg/injection, schedule: Q04DX003 (ip), vehicle: distilled water + Tween-80 112 % of control

CC(=O)Nc1ccc(C#[N+][S-])cc1
inactive: dose: 3.13 mg/kg/injection, schedule: Q01DX001 (ip), vehicle: Klucel (hydroxypropylcellulose) (HPC) 104 % of control | dose: 6.25 mg/kg/injection, schedule: Q01DX001 (ip), vehicle: Klucel (hydroxypropylcellulose) (HPC) 97 % of control | dose: 12.5 mg/kg/injection, schedule: Q01DX001 (ip), vehicle: Klucel (hydroxypropylcellulose) (HPC) 93 % of control

Oc1c(O)c(Br)c(Br)c(Br)c1Br
inactive: [1] 98 % of control | [2] 103 % of control

CCN(CC)c1ccc(C)cc1Cl
inactive: dose: 100.0 mg/kg/injection, schedule: Q04DX003 (ip), vehicle: saline sonified 102 % of control

O=C1CCC(OC(=O)c2ccccc2)CCN1 (configuration not stated)
inactive: [12] 87 % of control | [13] 98 % of control | [14] 90 % of control

C[n+]1cccc(NC(=O)COc2ccc(Cl)c(Cl)c2)c1
inactive: [9] 106 % of control | [11] 104 % of control | [4] 97 % of control and 104 % of control
